Source: patent publication US20130310374A1, “Substituted Imidazoquinoline Derivatives” (PIRAMAL ENTERPRISES LIMITED`, priority 2010, published 2013)
pIC50: −log10 of the molar value.

How the values were obtained:
ALK1 (ACVRL1) = molecular target: T1, ALK1 (ACVRL1) (Homo sapiens, UniProt P37023); assay: ALK1 inhibition assay (TR-FRET); format: biochemical; details: 20 μM ATP, read-out: IC50 for ALK-1
T1 construct: recombinant human, catalytic domain of ALK1 (ACVRL1) or ALK2 (ACVR1) kinase GST fusion proteins; GST; purchased Invitrogen, USA
T1 sequence (P37023 202-492 limits assumed): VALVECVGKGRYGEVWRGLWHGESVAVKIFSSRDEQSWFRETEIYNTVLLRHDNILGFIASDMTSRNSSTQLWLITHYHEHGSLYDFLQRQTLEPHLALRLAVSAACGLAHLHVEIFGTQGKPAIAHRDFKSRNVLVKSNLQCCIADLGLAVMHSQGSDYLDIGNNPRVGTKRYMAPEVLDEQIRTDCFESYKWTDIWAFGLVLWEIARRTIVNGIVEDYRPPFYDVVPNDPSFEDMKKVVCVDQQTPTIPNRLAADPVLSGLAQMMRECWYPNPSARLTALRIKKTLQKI
Procedure: (§1) Protocol for ALK1 and ALK2 Inhibition Assay
(§2) The in vitro kinase assays using recombinant human, catalytic domain of ALK1 (ACVRL1) or ALK2 (ACVR1) kinase GST fusion proteins (Invitrogen, USA) were conducted using a time-resolved fluorescence (TR-FRET) format. Kinase reactions were carried out in a 384-well plate format in a final volume of 20 μl. The standard enzyme reaction buffer consisted of 50 mM Tris HCL (pH: 7.4), 1 mM EGTA, 10 mM MgCl2, 2 mM DTT, 0.01% Tween-20, 20 nM of ALK1/ALK2 kinase enzyme (Invitrogen, USA), 50 nM of peptide substrate (DNA Topoisomerase 2 alpha (Thr 1342)U1 peptide, Perkin Elmer, USA) and 20 μM of ATP. Various concentrations of compound of Example 3a in DMSO (final concentration 2%), was added to give a final concentration of the compound ranging from 20 μM to 20 pM. [20 nM of enzyme and compound in various concentrations were pre incubated for 10 minutes at 23° C. followed by the addition of 50 nM of the peptide substrate]. Reaction was initiated with the addition of 20 μM of ATP. After incubation for 1 hour at 23° C., kinase reaction was stopped with the addition of 5 μl EDTA (final concentration of 10 mM in 20 μl). […] The IC50 values for compound of Example 3a were determined by a four-parameter sigmoidal curve fit (Sigma plot or Graph pad).

ALK2 (ACVR1) = molecular target: T2, ALK2 (ACVR1) (Homo sapiens, UniProt Q04771); assay: ALK2 inhibition assay (TR-FRET); format: biochemical; details: 20 μM ATP, read-out: IC50 for ALK-2
T2 construct: recombinant human, catalytic domain of ALK1 (ACVRL1) or ALK2 (ACVR1) kinase GST fusion proteins; GST; purchased Invitrogen, USA
T2 sequence (Q04771 208-502 limits assumed): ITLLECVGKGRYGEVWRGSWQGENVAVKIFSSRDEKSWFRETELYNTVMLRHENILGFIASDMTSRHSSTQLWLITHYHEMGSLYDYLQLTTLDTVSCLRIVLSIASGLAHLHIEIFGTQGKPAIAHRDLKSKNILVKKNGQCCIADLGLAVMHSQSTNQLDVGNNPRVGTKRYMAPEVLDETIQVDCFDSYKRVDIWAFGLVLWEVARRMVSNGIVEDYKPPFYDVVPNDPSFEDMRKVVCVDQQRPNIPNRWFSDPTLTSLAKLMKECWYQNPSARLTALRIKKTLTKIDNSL
Procedure: as §1, §2

[1] = test system: human PANC-1 xenograft tumors; assay: Pancreatic cancer xenograft model (tumor growth inhibition in vivo); design: species or system mouse; details: SCID mice, 3 mpk once daily p.o., 14 days; FIG. 3B
Procedure: Animals: Severe combined immunodeficient (SCID) mice (Male and Female) 6 to 8 weeks old, were used. Animals were housed in suitable cages under specified pathogen-free conditions in rooms maintained at 23° C. and 50% humidity, with a 12-hour light/12-hour dark cycle. The mice were quarantined during the acclimatization period of at least a week.
Pancreatic Cancer xenograft model: The human pancreatic carcinoma cells, (PANC-1) (ATCC) were grown in Eagle's Minimum Essential Medium (SAFC, US) supplemented with 10% (v/v) fetal bovine serum. The cells were incubated at 37° C. in a humidified atmosphere containing 5% CO2. […]
Tumor-bearing mice were randomized in two groups when the mean tumor weight was ˜100 mg. […] Twice a week, each xenograft was measured in two dimensions (a=length; b=width) with a caliper. Tumor volume (V) was determined by the following equation:
Tumor volumes were converted into tumor weights assuming a tumor density of 1 mm^3=1 mg. Tumor growth inhibition (TGI) for each group was calculated according to the following formula: […]
Wherein, T and T0 are the mean tumor volumes on a specific experimental day and on day 1 of treatment, respectively, for the experimental groups. […] Animals in each group were observed every day for signs of health deterioration and animal weight was recorded daily. […]

- pIC50 (ALK1 (ACVRL1)): 7.38
- pIC50 (ALK2 (ACVR1)): 7.33
Compound: CS(=O)(=O)O.Cn1c(=O)n(-c2ccc(C(C)(C)C#N)nc2)c2c3cc(-c4cnc(N)c(C(F)(F)F)c4)ccc3ncc21 [Example 3a, 8-(6-Amino-5-(trifluoromethyl)pyridin-3-yl)-1-(6-(2-cyanopropan-2-yl)pyridin-3-yl)-3-methyl-2-oxo-2,3-dihydro-1H-imidazo[4,5-c]quinolin-5-ium methanesulfonate]
- Growth of pancreatic tumors, PANC-1 xenograft [1]: effectively inhibited the growth of pancreatic tumors
